PMC8190750 (Cell Research, 2021)
Numbered stars: 1 amine (or outer) side, 2 acyl side, 3 side chain; on linkers, the order of the positions; unused ones are H or OH. Bridge positions count the residues as written; N and C are the ends. Square brackets hold non-standard residues; d marks the D form. Peptide text beside a SMILES is read from it. * marks the point of attachment. X1 = CC[C@H](C)[C@@H](N[*:1])[C@@H](O)CC(=O)O[C@H](C(=O)[C@H](C)C(=O)[*:2])C(C)C; NMeY = CN[C@@H](Cc1ccc(O)cc1)C(=O)O; dNMeL = CN[C@H](CC(C)C)C(=O)O; Pyruvoyl = CC(=O)C(=O)*

What was measured:
[1] = molecular target: 2-E channels (Severe acute respiratory syndrome coronavirus 2, UniProt P0DTC4); format: biochemical, SARS-CoV-2
Chain of 2-E channels (P0DTC4 whole entry, looked up): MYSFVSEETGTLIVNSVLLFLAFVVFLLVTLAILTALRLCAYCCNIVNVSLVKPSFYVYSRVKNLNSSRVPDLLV

[2] = system: Vero E6 cells
[3] = system: SARS-CoV-2; conditions: in vivo; cited from earlier work
[4] = system: SARS-CoV-2; conditions: in vivo; cited from earlier work; remark: listed apart in the source
[5] = system: SARS-CoV-2; conditions: in vivo; cited from earlier work; remark: listed apart in the source
[6] = system: 2-E-induced cell death in Vero E6 cells; format: cell-based, African green monkey; conditions: read-out: IC50 Cell protection
[7] = system: SARS-CoV-2; format: cell-based; conditions: read-out: IC50 Anti-virus

5-(N, N-hexamethylene)-amiloride [HMA]
concentration with inhibitory activity on 2-E channels [1]: ≥ 50 µM
cytotoxicity (in words) [2]: strong cytotoxicity

COC(=O)C1=C(C)NC(C)=C(C(=O)OC)C1c1ccccc1[N+](=O)[O-] [Nifedipine]
effects on 2-E channels [1]: negligible effects

CC[N+](CC)(CC)CC [Tetraethylammonium]
effects on 2-E channels [1]: negligible effects

NC1=N[C@H](O)[C@H]2[C@H]3O[C@]4(O)O[C@@H]([C@@H](O)[C@@]2(N1)[C@@H]4O)[C@]3(O)CO [Tetrodotoxin]
effects on 2-E channels [1]: negligible effects

NC12CC3CC(CC(C3)C1)C2 [amantadine]
concentration with inhibitory activity on 2-E channels [1]: ≥ 50 µM

CN[C@H]1C(=O)N[C@@H]2Cc3ccc(cc3)Oc3cc4cc(c3O[C@@H]3O[C@H](C(=O)O)[C@@H](O)[C@H](O)[C@H]3NC(=O)CCCCCCCCC(C)C)Oc3ccc(cc3Cl)[C@@H](O)[C@@H]3NC(=O)[C@H](NC(=O)[C@@H]4NC(=O)[C@@H](NC2=O)c2cc(cc(O)c2Cl)Oc2cc1ccc2O)c1ccc(O)c(c1)-c1c(O[C@H]2O[C@H](CO)[C@@H](O)[C@H](O)[C@@H]2O)cc(O)cc1[C@@H](C(=O)NCCCN(C)C)NC3=O [dalbavancin]
prophylactic effects on viral replication and lung injuries [3]: good prophylactic effects

CCN(CCO)CCCC(C)Nc1ccnc2cc(Cl)ccc12 (stereo not shown) [hydroxychloroquine]
virus loading or titers in the respiratory tissues [4]: failed to reduce virus loading or titers in the respiratory tissues

OC(c1cc(C(F)(F)F)nc2c(C(F)(F)F)cccc12)C1CCCCN1 (stereo not shown) [mefloquine]
prophylactic effects on viral replication and lung injuries [3]: good prophylactic effects

CC[C@H](C)[C@H]1NC(=O)[C@@H](NC(=O)[C@@H](CC(C)C)N(C)C(=O)[C@@H]2CCCN2C(=O)C(C)=O)[C@@H](C)OC(=O)[C@H](Cc2ccc(OC)cc2)N(C)C(=O)[C@@H]2CCCN2C(=O)[C@H](CC(C)C)NC(=O)[C@@H](C)C(=O)[C@H](C(C)C)OC(=O)C[C@@H]1O [plitidepsin] (Pyruvoyl-P[dNMeL]T[X1]LP[NMeY](Me); ester 3-C)
prophylactic effects on viral replication and lung injuries [3]: good prophylactic effects

CCC(CC)COC(=O)[C@H](C)N[P@](=O)(OC[C@H]1O[C@@](C#N)(c2ccc3c(N)ncnn23)[C@H](O)[C@@H]1O)Oc1ccccc1 [remdesivir]
virus loading in the respiratory tract [5]: cannot reduce the virus loading in the respiratory tract

Berbamine [BE-12]
IC50 [6]: 34.3 µM
IC50 [7]: 14.5 µM
